Measured values taken from patent US6635631B2, “Iron compounds, compositions, methods of making the same and uses thereof” (Vitra Pharmaceuticals, Ltd., priority 1995, dated 2003).
Values joined by “and” are separate entries in the source; they are usually repeats but may differ in a detail not shown here. Identical values can stand only once. Each block holds one compound with its values, some of them ahead of it.

Legend:
[1] = Effect on iron absorption in vivo of maltol as a diet supplement (liver iron); design: species or system Male Wistar rats; conditions: for Liver Fe: rats fed maltol 50 mg/kg by gavage on alternate days, individual animals 1-6; for Liver Fe, MEAN: rats fed maltol 50 mg/kg
Method: Male Wistar rats, housed in polyethylene cages, initially weighing 70-80 grams were given a normal powder diet and water ad libitum for two weeks prior to treatment with maltol by gavage. Provided the animal was showing normal growth, treatment by gavage with maltol at 50 mg/kg was commenced and continued on alternate days for a further two weeks. At the end of the experimental period the animals were sacrificed, the livers were excised, mass determined and the sub cellular fraction assayed for iron be electrothermal atomic absorption. […]. The iron content of the diet is 240 mg/kg of food and the daily consumption of the rats is approximately 20 g which contains 4.8 mg as iron. The content of maltol in the diet is approximately 10 mg which is a ratio of iron/maltol of 4.8/10.0 which is approximately a 1:1 molar ratio (actual 1:1 is 4.5/10/0).
The liver content and concentration of iron in the sub cellular fraction were compared with the control group fed the same diet over the month, but without maltol.

[2] = In vivo test in man: ICPOES analysis for iron in serum; conditions: for Iron concentration [Fe] (s.d.) in serum: man, with 10% excess maltol
From the text: A composition of the invention comprising ferric maltol chloride ([FeM]^++Cl2−) ie. a 1:1 iron:hydroxypyrone complex together with a small (10%) excess of moltol (uncomplexed hydroxypyrone).

[3] = In vivo test in man: plasma iron concentration by ICP after oral ferric monomaltol citrate; conditions: time 0 mins (resting value)
Method: A composition of the invention comprising ferric monomaltol citrate with 30 mg as iron in 5 ml of water was administered orally to a person who had fasted for 24 hours. The plasma iron concentration in the subject's bloodstream was determined by the ICP [inductively coupled plasma, (Machine Jobin Yvonne Modol 20)] technique which determines the emission spectra of elements by optical spectrometry when samples are subjected to a very hot flame. The technique is very sensitive and the accuracy and precision is less than +or −1%.

[4] = pH and stability of solutions of the complexes (description); type: physicochemical; conditions: for stability in solution: buffered pH of 7
[5] = Solubility of iron complexes and mixtures (description); type: physicochemical; conditions: for solubility relative to the 1:3 iron/hydroxypyrone molar ratio complex: 1:1 complexes
[6] = Tests to determine optimum pH and molar ratios of iron:hydroxypyrone for synthesis of the 1:1 complex; type: physicochemical; conditions: pH 1-2
Method: Further tests to determine the optimum pH and molar ratios of iron:hydroxypyrone for synthesis of the 1:1 complex were carried out using iron:hydroxypyrone (maltol) ratios of 1:1.1, 1:1.15 and 1:1.25. For each ratio concentrations of 1M, 0.1M and 0.01M were tested. In the tests iron was used in an aqueous form.

red blood cell = experiment: Initial toxicity studies: red blood cell haemolysis; type: cell-based; conditions: liquid formulations
[7] = Stability of the 1:1 molar ratio complex of iron and hydroxypyrone (visual precipitates, UV-V spectroscopy); type: physicochemical
Method: Various solutions of iron (III),and hydroxypyrone (ethylmaltol) were buffered to pH 7 with 50 mM morpholine propane sulphonate (MOPS) 50 mM, to pH 5 with sodium acetate (50 mM) and to pH 3 with glycine (50 mM). Iron III nitrate 9 H2O was used as a source of iron.

Structure (SMILES): Cc1occc(=O)c1O [Maltol, 3-hydroxy-2-methyl-4-pyrone]
- Liver Fe ([1]; iron concentration, µg per g liver): 118.8 µg/g and 113.2 µg/g and 87.3 µg/g and 165.8 µg/g and 149.2 µg/g and 123.4 µg/g
- Liver Fe ([1]; total iron, mg per liver): 1.44 mg/liver and 1.14 mg/liver and 0.86 mg/liver and 1.87 mg/liver and 1.69 mg/liver and 1.25 mg/liver
- Liver Fe, MEAN ([1]; mean of 6 animals (control 1.06 ± 0.25)): 1.38 ± 0.37 mg/liver
- Liver Fe, MEAN ([1]; mean of 6 animals (control 120.1 ± 30.2)): 126.3 ± 27.7 µg/g
- change in liver iron content versus control ([1]; rats, maltol 50 mg/kg by gavage): small but significant increase

- Iron concentration [Fe] (s.d.) in serum ([2]; time 0 min, n = 2): 1188.81 (17.57) ppb
- Iron concentration [Fe] (s.d.) in serum ([2]; time 20 min, n = 2): 1387.66 (63.08) ppb
- Iron concentration [Fe] (s.d.) in serum ([2]; time 60 min, n = 2): 1600.62 (115.83) ppb
- Iron concentration [Fe] (s.d.) in serum ([2]; time 120 min, n = 1): 1312.74 (0) (n = 1) ppb
Structure (SMILES): Cc1occc(=O)c1[O-].[Cl-].[Cl-].[Fe+3] [ferric maltol chloride]

- iron conc (plasma) ([3]; 30 mg as iron in 5 ml water, fasted 24 hours): 1.2 µg/mL
- iron conc (plasma) ([3]; 30 mg as iron): 21.8 µmol/L
Structure (SMILES): Cc1occc(=O)c1[O-].O=C([O-])CC(O)(CC(=O)O)C(=O)[O-].[Fe+3] [ferric monomaltol citrate]

- natural pH ([4]; solution): approximately 2.8
- solubility relative to the 1:3 iron/hydroxypyrone molar ratio complex [5]: approximately ten times more soluble
- solubility ([5]; pH 1-2): very soluble
- proportion of the solution that comprises the 1:1 complex [6]: ~80%
- iron uptake ([2]; in vivo, po): taken up well
Structure (SMILES): Cc1occc(=O)c1[O-].[Fe+3] [ferric monomaltol]
- stability in solution [4]: stability for extended periods (for example six months)
- red blood cell haemolysis and breakdown (red blood cell): do not cause red blood cell haemolysis and red blood cell breakdown

Structure (SMILES): O=S(=O)([O-])[O-].[Fe+2] [ferrous sulphate, reference compound]
- stability in solution [4]: precipitate very rapidly

- solubility relative to the 1:3 iron/hydroxypyrone molar ratio complex [5]: approximately ten times more soluble
- stability of solutions ([7]; 0.1M, 0.01M and 0.001M, pH 3, 5 and 7): stable for up to two months
Structure (SMILES): CCc1occc(=O)c1[O-].[Fe+3] [iron ethyl maltol]
- formation of ferric triethylmaltol (1:3 complex) ([7]; wide concentration range, up to pH 7): no ferric triethylmaltol is found even at pH 7
